Laboratory results published in PMC6789111, “Crossing the blood-brain-barrier with nanoligand drug carriers self-assembled from a phage display peptide” (Nature Communications, 2019).
Peptide text beside a SMILES is read from it. * marks the point of attachment. 5FAM = O=C1OC2(c3ccc(O)cc3Oc3cc(O)ccc32)c2ccc(C(=O)*)cc21

Assays:
[1] = mouse, in vivo, iv
Procedure: After 4, 24 and 72 h post injection, mice were sacrificed and perfused with 10 mL 0.9% (w/v) saline at a rate of 2 mL min^−1. Organs (brain, heart, liver, lung, kidney, spleen) were collected for haematoxylin-eosin (H&E) analysis. Tissues were sectioned at a 5 mm thickness. H&E staining was done by submersion in Harris hematoxylin followed by differentiation through 37% HCl and Li2CO3 solution. An Olympus optical microscope (Tokyo, Japan) was used for assessing slides.

hCMEC/D3 cell monolayer = assay: Transwell in vitro BBB model; format: cell-based, human
Procedure: For the construction of the in vitro BBB model, hCMEC/D3 cells were seeded on rat tail collagen-coated polycarbonate membranes (Transwell, No. 3401 Costar; Corning, Wiesbaden, Germany; 0.4 μm pore size; 1.13 cm^2 growth area) with a density of 100,000 cells cm^−2. Every three days the cell medium was change. In general after 7 days growth, the cells reached confluence. The transendothelial electrical resistance (TEER) and cell layer capacitance (CCL), which reflects the membrane surface area of the hCMEC/D3 cell monolayer, were measured using CellZscope system (NanoAnalytics, Münster, Germany). Cells with CCL values in the range of 0.5–5.0 μF cm^−2 indicate cell confluence and validate TEER values were selected for the transfer experiments. NLCs at different concentrations were introduced in to the apical side of the BBB model. The TEER values were measured during the incubation. After 24 h of incubation, the media from basal and apical sides were sampled and analysed for fluorescent measurement. CD31 and paracellular adherens (β-catenin) junctions were assessed by immunofluorescence labeling directly on the cell monolayer attached to the transwell membrane. Briefly, cells were fixed by 4% v/v paraformaldehyde for 10 min, rinsed and then permeabilised with 0.5% (v/v) Triton X-100 for 10 min. After rinsing samples were blocked by 5% w/v BSA for 1 h, followed by incubation with primary antibodies (rabbit polyclonal to CD31, rabbit polyclonal to anti-β-catenin) in 1% w/v BSA overnight at 4 °C. […] After rinsing, the red fluorescence from tight junction proteins was observed by a Leica AF6000LX microscope equipped with a 63 × objective using ×1.6 magnifications. […]
formation of multiple cell-layers was sometime observed from day 7 onward. […] TEER values and its corresponding capacitance were recorded after the introduction of peptide for 24 h. (d) & (e) Staining and quantification of endothelial cells (CD31) and adheren β-catenin markers confirming the presence of a functional tight junction before and after NLC ( 5 µM) challenge. […]

IL-6 = assay: ELISA of IL-6 in hippocampus; format: in vivo, ICR mice; conditions: Ave.
Procedure: After 4, 24 and 72 h post injection, mice were sacrificed and perfused with 10 mL 0.9% (w/v) saline at a rate of 2 mL min^−1.
Hippocampus was dissected out, rinsed in ice-cold PBS thoroughly, weighted and immediately frozen in liquid nitrogen. Tissues were cut into small pieces and homogenized in 1 mL ice-cold PBS with a glass homogeniser and sonicated with an ultrasonic cell disrupter to break the cell membranes. Homogenates were centrifuges for 5 min at 5,000 × g and supernatants were assayed immediately for quantitative determination of TNF-α, IL-6, IL-1β, Iba-1 and GFAP by corresponding ELISA kits, respectively in accordance with manufacturer’s instructions.

hCMEC/D3 cells [2] = assay: Uptake with internalisation inhibitors; conditions: 37 °C
Procedure: The medium was then removed and replaced with a fresh medium containing NLCs and the corresponding inhibitor. After 8 h of incubation at 37 °C, cells were washed three times with cell medium and analysed by FACS. Cell viability at the end of each experiment was >90% as determined by Trypan Blue exclusion test. The following inhibitors were used: 2-deoxy-D-glucose (1 mM)/sodium azide (1 mM) as energy-dependent inhibitors, worthmanin (10 μM) as macropinocytosis inhibitor, chloropromazine (30 μM) as clathrin-dependent endocytosis inhibitor, N-ethylmaleimide (5 μM) as caveolae-dependent endocytosis and transcytosis inhibitor and indomethacin (200 μM) as caveolae-dependent endocytosis inhibitor.

hCMEC/D3 cells [3] = assay: Competition studies of NLC uptake; format: cell-based, human
Procedure: The amyloid β1–42 oligomers were prepared using a previous method. BSA was used as control protein competitor. The fluorescence microscopy and FACS were employed to observe and quantify FAM-CGY self-assembly uptake, respectively.

Iba-1 = assay: ELISA of Iba-1 in hippocampus; format: in vivo, ICR mice; conditions: Ave.
[4] = Blood count after intravenous injection; format: in vivo, ICR mice; conditions: mouse, in vivo, iv
From the text: Supplementary Table 2. Blood count following intravenous injection of FAM-CGY NLCs in free form and complexed with siRNA
Samples WBC RBC HGB HCT MCV MCH MCHC PLT
WBC: white blood cell; RBC: red blood cell count; HGB: haemoglobin; HCT: haematocrit; MCV: mean corpuscular volume; MCH: mean corpuscular haemoglobin; MCHC: mean corpuscular
significance (*p < 0.05). The results are mean ± s.d. (n = 3 animals per group). The experiment was repeated twice with identical results. The siRNA represent BACE-1-specific siRNA. The
final concentration of the peptide conjugate was 10 µM and that of siRNA was 48 nM, based on blood volume calculation equivalent to 6% of the body weight. LPS = lipopolysaccharide.

GFAP = assay: ELISA of GFAP in hippocampus; format: in vivo, ICR mice; conditions: Ave.

## CC[C@H](C)[C@H](NC(=O)[C@H](CC(N)=O)NC(=O)[C@H](Cc1c[nH]cn1)NC(=O)[C@@H](NC(=O)[C@@H]1CCCN1C(=O)[C@H](CCCNC(=N)N)NC(=O)[C@H](Cc1ccc(O)cc1)NC(=O)CNC(=O)[C@H](CS)NC(=O)c1ccc2c(c1)C(=O)OC21c2ccc(O)cc2Oc2cc(O)ccc21)C(C)C)C(=O)N[C@@H](CCCNC(=N)N)C(=O)NCC(=O)N[C@@H](Cc1c[nH]cn1)C(=O)N[C@@H](Cc1c[nH]c2ccccc12)C(=O)N[C@@H](C)C(=O)N1CCC[C@H]1C(=O)NCC(=O)O [FAM-CGY] (5FAM-CGYRPVHNIRGHWAPG-OH)
[1]
  histology of liver, kidneys, heart, lungs, spleen: no adverse morphological changes and inflammatory reactions
hCMEC/D3 cell monolayer
  transport across the hCMEC/D3 monolayer: transport of a fraction across the monolayer
IL-6; 4 h after i.v.
  IL-6 in hippocampus (Figure 6f): 6.03
IL-6; 72 h after i.v.
  IL-6 in hippocampus (Figure 6f): 6.23
hCMEC/D3 cells [2]; CPZ (chloropromazine 30 μM), 8 h, replicate 1
  Mean flouresence (%), uptake vs Control (no inhibitor): 50.26%
hCMEC/D3 cells [2]; CPZ (chloropromazine 30 μM), 8 h, replicate 2
  Mean flouresence (%), uptake vs Control (no inhibitor): 42.26%
hCMEC/D3 cells [2]; CPZ (chloropromazine 30 μM), 8 h, replicate 3
  Mean flouresence (%), uptake vs Control (no inhibitor): 56.45%
hCMEC/D3 cells [2]; DOG+NaN3 (1 mM/1 mM), 8 h, replicate 2
  Mean flouresence (%), uptake vs Control (no inhibitor): 62.26%
hCMEC/D3 cells [2]; DOG+NaN3 (1 mM/1 mM), 8 h, replicate 3
  Mean flouresence (%), uptake vs Control (no inhibitor): 36.09%
hCMEC/D3 cells [2]; DOG+NaN3 (2-deoxy-D-glucose 1 mM/sodium azide 1 mM), 8 h, replicate 1
  Mean flouresence (%), uptake vs Control (no inhibitor): 44.27%
hCMEC/D3 cells [2]; IMC (indomethacin 200 μM), 1 h pre-treatment + 8 h, FACS, FAM-CGY NLC 5 µM or Texas Red-transferrin 5 µg per well, replicate 1
  Mean flouresence (%), uptake vs Control (no inhibitor): 66.27%
hCMEC/D3 cells [2]; IMC (indomethacin 200 μM), 8 h, replicate 2
  Mean flouresence (%), uptake vs Control (no inhibitor): 72.37%
hCMEC/D3 cells [2]; IMC (indomethacin 200 μM), 8 h, replicate 3
  Mean flouresence (%), uptake vs Control (no inhibitor): 72.43%
hCMEC/D3 cells [2]; NEM (N-ethylmaleimide 5 μM), 8 h, replicate 1
  Mean flouresence (%), uptake vs Control (no inhibitor): 56.24%
hCMEC/D3 cells [2]; NEM (N-ethylmaleimide 5 μM), 8 h, replicate 2
  Mean flouresence (%), uptake vs Control (no inhibitor): 70.26%
hCMEC/D3 cells [2]; NEM (N-ethylmaleimide 5 μM), 8 h, replicate 3
  Mean flouresence (%), uptake vs Control (no inhibitor): 66.59%
hCMEC/D3 cells [2]; WOR (worthmanin 10 μM), 8 h, replicate 1
  Mean flouresence (%), uptake vs Control (no inhibitor): 73.57%
hCMEC/D3 cells [2]; WOR (worthmanin 10 μM), 8 h, replicate 2
  Mean flouresence (%), uptake vs Control (no inhibitor): 75.56%
hCMEC/D3 cells [2]; WOR (worthmanin 10 μM), 8 h, replicate 3
  Mean flouresence (%), uptake vs Control (no inhibitor): 60.92%
hCMEC/D3 cells [3]; 500 nM partially iron saturated human transferrin, 37 °C
  inhibition of NLC uptake by transferrin: ~ 50%
hCMEC/D3 cells [3]; 5 µM NLC + 62.5 nM Tf, Ave. All
  FAM-CGY uptake (% of control): 78.89 % of control
hCMEC/D3 cells [3]; 5 µM NLC + 62.5 nM Tf, Set 2
  FAM-CGY uptake (% of control): 73.26 % of control
hCMEC/D3 cells [3]; 5 µM NLC + 62.5 nM Tf, Set 3
  FAM-CGY uptake (% of control): 81.15 % of control
hCMEC/D3 cells [3]; 5 µM NLC + 62.5 nM transferrin (Tf), 16 h, FACS, Set 1
  FAM-CGY uptake (% of control): 82.27 % of control
hCMEC/D3 cells [3]; 5 µM NLC + 250 nM Tf+20 μg RAGE P, Ave. All
  FAM-CGY uptake (% of control): 33.57 % of control
hCMEC/D3 cells [3]; 5 µM NLC + 250 nM Tf, Ave. All
  FAM-CGY uptake (% of control): 53.82 % of control
hCMEC/D3 cells [3]; 5 µM NLC + 500 nM Tf, Ave. All
  FAM-CGY uptake (% of control): 48.73 % of control
hCMEC/D3 cells [3]; 5 µM NLC + 5 μg RAGE P, Ave. All
  FAM-CGY uptake (% of control): 90.44 % of control
hCMEC/D3 cells [3]; 5 µM NLC + 5 μg RAGE P, Set 2
  FAM-CGY uptake (% of control): 86.26 % of control
hCMEC/D3 cells [3]; 5 µM NLC + 5 μg RAGE P, Set 3
  FAM-CGY uptake (% of control): 92.62 % of control
hCMEC/D3 cells [3]; 5 µM NLC + 5 μg RAGE peptide (RAGE P), Set 1
  FAM-CGY uptake (% of control): 92.46 % of control
hCMEC/D3 cells [3]; 5 µM NLC + 10 μg RAGE P, Ave. All
  FAM-CGY uptake (% of control): 82.03 % of control
hCMEC/D3 cells [3]; 5 µM NLC + 20 μg RAGE P, Ave. All
  FAM-CGY uptake (% of control): 58.83 % of control
hCMEC/D3 cells [3]; 5 µM NLC + 40 μg BSA (irrelevant protein), Set 1
  FAM-CGY uptake (% of control): 108.69 % of control
hCMEC/D3 cells [3]; 5 µM NLC + 40 μg BSA, Ave. All
  FAM-CGY uptake (% of control): 103.56 % of control
hCMEC/D3 cells [3]; 5 µM NLC + 40 μg BSA, Set 2
  FAM-CGY uptake (% of control): 96.26 % of control
hCMEC/D3 cells [3]; 5 µM NLC + 40 μg BSA, Set 3
  FAM-CGY uptake (% of control): 105.73 % of control
hCMEC/D3 cells [3]; simultaneous presence of both
  block of NLC uptake by transferrin plus RAGE peptide ligand: ~ 70%
Iba-1; 4 h after i.v.
  Iba-1 in hippocampus (Figure 6h): 0.93
Iba-1; 24 h after i.v. (LPS 24 h)
  Iba-1 in hippocampus (Figure 6h): 1.02
Iba-1; 72 h after i.v.
  Iba-1 in hippocampus (Figure 6h): 0.96
[4]
  WBC: 4.32±0.53 (×109)L-1
  effect on blood count: no effect on blood count
GFAP; 4 h after i.v.
  GFAP in hippocampus (Figure 6i): 219.00
GFAP; 24 h after i.v. (LPS 24 h)
  GFAP in hippocampus (Figure 6i): 209.59
GFAP; 72 h after i.v.
  GFAP in hippocampus (Figure 6i): 220.69
